Strand notation (5' to 3'): a small letter for the sugar, then the base; units joined by * are phosphorothioate-linked, units joined directly phosphodiester-linked; [ ] holds rarer units or linkages, { } end groups; capitals alone tell only the bases. e = 2'-O-(2-methoxyethyl) (MOE); k = constrained ethyl (cEt); [5mC] = 5-methylcytosine; d = 2'-deoxy (DNA); m = 2'-O-methyl
These substances were tested on Yap1 mRNA (assay: Antisense inhibition of human Yap1 in SNU-449 cells by modified oligonucleotides, single dose (Example 5, RTS36584)). Conditions: Table 39; SNU-449 cells, 10,000 cells per well, free uptake, 2,000 nM oligonucleotide, approx. 48 hours; RTS36584; normalized to RIBOGREEN; Yap1 mRNA relative to untreated control.
Format: cell-based
How it was run: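 Free uptake, 2,000 nM, ~48 h, SNU-449 at 10,000 cells/well. Read-out: qRT-PCR (RTS36584), RIBOGREEN-normalised, expressed as % UTC. Asterisk = oligo hits amplicon region.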

Substance	YAP1 (% UTC)
1198455 (kT*dT*dA*dG*dA*d[5mC]*dT*dA*dA*dG*dT*kA*eA*kG*eG*kT) [Compound 1198455]	42 % UTC
1198394 (kT*dT*dT*dT*dA*d[5mC]*dA*dT*dT*dA*dG*kG*eA*kA*e[5mC]*kA; antisense) [Compound 1198394]	63 % UTC
1198382 (kT*dT*dA*dG*dA*dG*dT*dA*dT*dG*dT*kG*eG*k[5mC]*eA*kA; antisense) [Compound 1198382]	19 % UTC
1198415 (kG*dA*dT*dT*dT*dA*dG*dG*dA*dT*dG*k[5mC]*eA*kT*eG*kG; antisense) [Compound 1198415]	29 % UTC

Same assay, conditions: Table 40 (separate experiment); SNU-449 cells, 10,000 cells per well, free uptake, 2,000 nM oligonucleotide, approx. 48 hours; RTS36584; normalized to RIBOGREEN; Yap1 mRNA relative to untreated control

Substance	YAP1 (% UTC)
1198750 (kG*eG*kA*dA*dG*dA*dT*d[5mC]*dT*dG*dA*dA*eA*e[5mC]*kT*k[5mC]; antisense) [Compound 1198750]	32 % UTC
1198795 (antisense kT*eA*kA*dG*dG*dT*dT*dT*d[5mC]*d[5mC]*d[5mC]*dA*eG*eA*kT*kT) [Compound 1198795]	43 % UTC
1198746 (kG*e[5mC]*kA*d[5mC]*dT*dT*dT*dT*dA*d[5mC]*dA*dT*eT*eA*kG*kG; antisense) [Compound 1198746]	7 % UTC
1198800 (antisense kA*e[5mC]*kT*dA*dA*dG*dT*dA*dA*dG*dG*dT*eT*eT*k[5mC]*k[5mC]) [Compound 1198800]	47 % UTC

Same assay, conditions: Table 41; SNU-449 cells, 10,000 cells per well, free uptake, 2,000 nM modified oligonucleotide, approximately 48 hours; RTS36584; normalized to RIBOGREEN; Yap1 mRNA relative to untreated control cells

Substance	YAP1 (% UTC)
1198645 (kT*k[5mC]*dT*dA*dT*dA*dT*dT*dA*dG*dA*dG*kT*eA*kT*eG; antisense) [Compound 1198645]	73 % UTC
1198786 (antisense kT*eG*kT*dA*dT*dG*dT*d[5mC]*dA*dG*dA*dA*eG*eA*kG*kT) [Compound 1198786]	16 % UTC
1198790 (antisense kT*eA*kA*dA*dG*dT*dG*dT*dA*dT*dG*dT*e[5mC]*eA*kG*kA) [Compound 1198790]	27 % UTC

Same assay, conditions: Table 42 (separate experiment); SNU-449 cells, 10,000 cells per well, free uptake, 2,000 nM modified oligonucleotide, approximately 48 hours; RTS36584; normalized to RIBOGREEN; Yap1 mRNA relative to untreated control cells

Substance	YAP1 (% UTC)
1095481 (antisense kT*kG*dA*dG*dG*dT*dA*dT*dA*dA*d[5mC]*dT*kG*eG*kG*e[5mC]) [Compound 1095481]	21 % UTC
1198211 (kA*kT*dT*dA*dG*dA*dG*dT*dA*dT*dG*eT*eG*eG*k[5mC]*kA; antisense) [Compound 1198211]	19 % UTC
1198222 (kT*kT*dT*dT*dA*d[5mC]*dA*dT*dT*dA*dG*eG*eA*eA*k[5mC]*kA) [Compound 1198222]	87 % UTC

Same assay, conditions: Table 43 experiment; SNU-449 cells, 10,000 cells per well, free uptake, 2,000 nM, approximately 48 hours; RTS36584; Yap1 mRNA normalized to RIBOGREEN, relative to untreated control cells

Substance	YAP1 (% UTC)
1198467 (antisense kT*kA*dG*dA*dG*dT*dA*dT*dG*dT*dG*eG*k[5mC]*eA*kA*eT) [Compound 1198467]	27 % UTC
1198274 (kA*kA*d[5mC]*dT*dT*dT*dA*dA*dA*dG*dT*eG*eT*eA*kT*kG; antisense) [Compound 1198274]	69 % UTC
1198481 (antisense k[5mC]*kT*dT*dT*dT*dA*d[5mC]*dA*dT*dT*dA*eG*kG*eA*kA*e[5mC]) [Compound 1198481]	72 % UTC

Same assay, conditions: Table 44 experiment; SNU-449 cells, 10,000 cells per well, free uptake, 2,000 nM, approximately 48 hours; RTS36584; Yap1 mRNA normalized to RIBOGREEN, relative to untreated control cells

Substance	YAP1 (% UTC)
1198488 (antisense kG*kG*dA*dA*dG*dA*dT*d[5mC]*dT*dG*dA*eA*kA*e[5mC]*kT*e[5mC]) [Compound 1198488]	66 % UTC
1198509 (kT*k[5mC]*dT*dT*dA*dT*dA*dT*dG*dG*dT*eT*kT*eT*kG*eT; antisense) [Compound 1198509]	20 % UTC
1198541 (antisense kT*kT*dA*dG*dA*d[5mC]*dT*dA*dA*dG*dT*eA*kA*eG*kG*eT) [Compound 1198541]	34 % UTC
1198528 (kT*kA*dA*dA*dG*dT*dG*dT*dA*dT*dG*eT*k[5mC]*eA*kG*eA; antisense) [Compound 1198528]	14 % UTC
1198890 (kT*kG*dT*d[5mC]*dT*d[5mC]*dA*dT*dG*d[5mC]*d[5mC]*kT*dT*kA*dT*kA) [Compound 1198890]	19 % UTC

Same assay, conditions: Table 45; Yap1 mRNA as percent of untreated control, SNU-449 cells, single dose

Substance	YAP1 (% UTC)
1198971 (k[5mC]*kT*dA*dA*dG*dT*dA*dA*dG*dG*dT*kT*dT*k[5mC]*d[5mC]*k[5mC]; antisense) [Compound 1198971]	31 % UTC

Same assay, conditions: Table 46; Yap1 mRNA as percent of untreated control, SNU-449 cells, single dose

Substance	YAP1 (% UT)
1198853 (kA*kT*dT*d[5mC]*dA*dG*dA*dT*dT*dT*dA*kG*eG*kA*eT*kG; antisense) [Compound 1198853]	105 % UT
1198887 (kG*kA*d[5mC]*dT*dA*dA*dG*dT*dA*dA*dG*kG*eT*kT*eT*k[5mC]; antisense) [Compound 1198887]	71 % UT

Same assay, conditions: Table 48; Yap1 mRNA level relative to untreated control; modified oligonucleotides targeting SEQ ID NO.: 1 and 2

Substance	YAP1 (% UT)
1198291 (kA*kT*kG*dG*dA*dA*dA*dT*dT*dG*dT*d[5mC]*kT*e[5mC]*kA*eT; antisense) [Compound 1198291]	58 % UT
1198316 (kG*kG*kA*dA*dG*dA*dT*d[5mC]*dT*dG*dA*dA*kA*e[5mC]*kT*e[5mC]; antisense) [Compound 1198316]	49 % UT

Same assay, conditions: Table 49; Yap1 mRNA level relative to untreated control; modified oligonucleotides targeting SEQ ID NO.: 1 and 2

Substance	YAP1 (% UT)
1198576 (antisense kT*kT*kT*dG*dG*dA*dA*dG*dA*dT*d[5mC]*dT*kG*kA*kA*eA) [Compound 1198576]	92 % UT
1095566 (antisense CTGAGGTATAACTGGG; chemistry not fully specified) [Compound 1095566]	47 % UT
1198335 (kT*kT*kA*dT*dA*dT*dG*dG*dT*dT*dT*dT*kG*eT*kG*eT; antisense) [Compound 1198335]	26 % UT
1198542 (antisense kT*kG*kT*d[5mC]*dT*d[5mC]*dA*dT*dG*d[5mC]*d[5mC]*dT*kT*kA*kT*eA) [Compound 1198542]	23 % UT
1198545 (antisense kA*kA*kA*dT*dT*dG*dT*d[5mC]*dT*d[5mC]*dA*dT*kG*k[5mC]*k[5mC]*eT) [Compound 1198545]	32 % UT
1198358 (kT*kT*kT*dA*dA*dA*dG*dT*dG*dT*dA*dT*kG*eT*k[5mC]*eA; antisense) [Compound 1198358]	15 % UT

Same assay, conditions: Table 50; Yap1 mRNA remaining as percent of untreated control (UT), SNU-449 cells, single dose

Substance	YAP1 (% UT)
1197244 (antisense kT*kT*kA*d[5mC]*mA*dT*dT*dA*dG*dG*dA*dA*d[5mC]*kA*kA*kG) [Compound 1197244]	60 % UT
1197246 (antisense kA*kG*k[5mC]*dA*mC*dT*dT*dT*dT*dA*d[5mC]*dA*dT*kT*kA*kG) [Compound 1197246]	33 % UT

Same assay, conditions: Table 51; Yap1 mRNA remaining as percent of untreated control (UT), SNU-449 cells, single dose

Substance	YAP1 (% UT)
1197300 (kG*kA*kT*dT*mU*dA*dG*dG*dA*dT*dG*d[5mC]*dA*kT*kG*kG; antisense) [Compound 1197300]	42 % UT
1197309 (kG*kT*kA*dA*mU*dA*dT*dT*dG*d[5mC]*dA*dA*dT*k[5mC]*kT*kG; antisense) [Compound 1197309]	11 % UT
1200795 (kT*kA*kG*dA*dG*mU*dA*dT*dG*dT*dG*dG*d[5mC]*kA*kA*kT; antisense) [Compound 1200795]	30 % UT
1197307 (kA*kT*kA*dT*mU*dG*d[5mC]*dA*dA*dT*d[5mC]*dT*dG*kT*k[5mC]*kT; antisense) [Compound 1197307]	88 % UT
1197279 (kT*kT*kA*dG*mA*d[5mC]*dT*dA*dA*dG*dT*dA*dA*kG*kG*kT) [Compound 1197279]	54 % UT

Same assay, conditions: Table 52; Yap1 mRNA, modified oligonucleotides targeting SEQ ID NO: 1 and 2

Substance	YAP1 (% UT)
1200832 (kA*kT*kT*dT*dA*mG*dG*dA*dT*dG*d[5mC]*dA*dT*kG*kG*kT; antisense) [Compound 1200832]	61 % UT
1200838 (kA*kT*kA*dT*dG*mG*dT*dT*dT*dT*dG*dT*dG*kT*kG*kT; antisense) [Compound 1200838]	65 % UT
1200863 (k[5mC]*kT*kT*dT*dA*mA*dA*dG*dT*dG*dT*dA*dT*kG*kT*k[5mC]; antisense) [Compound 1200863]	41 % UT
1200850 (kT*kA*kA*dT*dA*mU*dT*dG*d[5mC]*dA*dA*dT*d[5mC]*kT*kG*kT; antisense) [Compound 1200850]	83 % UT
1200834 (kA*kG*kA*dT*dT*mU*dA*dG*dG*dA*dT*dG*d[5mC]*kA*kT*kG; antisense) [Compound 1200834]	37 % UT

Same assay, conditions: Yap1 mRNA, percent of untreated control; modified oligonucleotides targeting SEQ ID NO: 1 and 2; Table 47

Substance	YAP1 (% UT)
1076187 (kG*kA*kT*dT*dT*dA*dG*dG*dA*dT*dG*d[5mC]*dA*kT*kG*kG; antisense) [Compound 1076187]	17 % UT
1197176 (antisense kT*kG*kT*d[5mC]*dT*d[5mC]*dA*dT*dG*d[5mC]*d[5mC]*dT*dT*kA*kT*kA) [Compound 1197176]	17 % UT
1076186 (kA*kT*kT*dT*dA*dG*dG*dA*dT*dG*d[5mC]*dA*dT*kG*kG*kT) [Compound 1076186]	31 % UT
1197224 (antisense kA*k[5mC]*kT*dA*dA*dG*dT*dA*dA*dG*dG*dT*dT*kT*k[5mC]*k[5mC]) [Compound 1197224]	24 % UT
